Test results reported in patent US20250326718A1, “4-PHENYL-2-PYRROLIDINONES AND METHODS OF USING THEREOF” (North Carolina State University, priority 2022, published 2025).
≈ marks a conversion by molar mass, not a printed value. Read-outs that look alike come from different tables or passages of the source.

Key:
Type in all cases: cell-based
[1] = tested on: MRSA (ATCC BAA 44) biofilm; experiment: Inhibition of MRSA biofilm formation (crystal violet); details: Staphylococcus aureus, 24 h, Table 1
Method: (§1) General information—Biological Assays. Methicillin-resistant and methicillin sensitive Staphylococcus aureus (MRSA and MSSA respectively) strains were obtained from the Laboratory of Professor Christian Melander (NCSU) (ATCC BAA 44 and 33591) and Dr. Jessica Gilbertie (ATCC 25923). Bacteria were kept in frozen stocks on glycerol at −80° C. until use. Bacteria was streaked onto tryptic-soy agar for colony isolation. Mueller-Hinton broth (MHB, 211443-BD), tryptic soy broth (TSB, Remel: R455052) and D-glucose (CAS: 492-62-6) were purchased from Fisher Scientific. Tryptic soy agar (TSA, cat. #22091) and Linezolid (cat. #P70014) were purchased from Sigma-Aldrich. Bacteria for biofilm inhibition were cultured overnight in TSB-G (tryptic soy broth with 0.5% glucose supplement) in 96 well plates. All assays were run in duplicate and repeated at least two separate times for MIC assays and at least three separate times for biofilm inhibition. All compounds were dissolved in molecular biology grade DMSO as 10 mM stock solutions. Optical densities were measured using a Thermo Scientific Genesys 20 spectrophotometer. Data for biofilm inhibition were collected using a BioTek ELx808 Microplate Reader. All graphs were generated and analyzed using GraphPad Prism 7.
Determination of the inhibitory effect of test compounds on MRSA biofilm formation. Inhibition assays were performed using a procedure adapted from S. A. Rogers and C. Melander, Angew. Chem. Int. Ed., 2008, 47, 5229-5231, which is hereby incorporated herein by reference. Briefly, the inhibition assays were performed by subculturing an overnight culture of MRSA (ATCC BAA 44) to an OD600 of 0.01 in TSB-G (tryptic soy broth with a 0.5% glucose supplement). Stock solutions of predetermined concentrations of the test compound were then made using the inoculated TSB-G. These stock solutions were aliquoted (100 μL) into the wells of the 96-well microtiter plate. Sample plates were sealed then incubated for 24 h at 37° C. After incubation, the medium was discarded from the wells and the plates were washed 2× with PBS. Prior to staining, plates were left to dry at ambient temperature for 2-3 h. Plates were then stained with 0.1% solution of crystal violet (CV, 125 μL) and then incubated at ambient temperature for 30 min. Plates were washed with PBS again and the remaining stain was solubilized with 99% ethanol (200 μL). A sample of solubilized CV stain (110 μL) from each well was transferred to the corresponding wells of a polystyrene microtiter dish. Biofilm biomass was quantified by measuring the OD540 of each well and inhibition was calculated as a percentage of the control (no compound); a negative control lane wherein no biofilm was formed served as a background and was subtracted out. Percent inhibition was then plotted against concentration in Prism 7. Each of the four experiments were plotted separately and S15 analyzed by a normalized nonlinear regression. The graphs on the following pages were generated from an average of the total data set. Biofilm data represent four separate experiments, with each experiment performed in duplicate (average of 8 data points for each concentration tested, unless otherwise noted).

MRSA (ATCC 33591) = experiment: Broth microdilution MIC, MRSA ATCC 33591; details: Staphylococcus aureus
Method: as §1
Broth microdilution method for determination of minimum inhibitory concentrations. As prescribed by the Clinical and Laboratory Standards Institute (CLSI) M07-A8, Vol. 29 (2) MSSA (ATCC 25923) and MRSA (ATCC BAA 44 and 33591) was grown in MHB for 6-8 h; this culture was used to inoculate fresh MHB (5×10^5 CFU/mL). The resulting bacterial suspension was aliquoted (1 mL) into 1.5 mL Eppendorf tubes and compound was added from a 10 mM DMSO stock to achieve the desired initial starting concentration (typically 128 μg/mL). Linezolid (from a 10 mM DMSO stock) was used as a positive control. Inoculated media not treated with compound served as the negative control. The MIC was determined by microbroth dilution following the CLSI guidelines. The MIC was defined as the lowest concentration of antibiotic with no visible growth. The plate was sealed and incubated under stationary conditions at 37° C.
The antimicrobial activity of Compounds 1-15 was assessed initially against MSSA (ATCC 25923) and MRSA (ATCC 33591) strains. It was observed that almost all these compounds precipitated in aqueous solution at concentrations equal or higher than 8-16 μg/mL. In order to obtain preliminary results on the antimicrobial activity for these compounds, the standard conditions of the antimicrobial assays used where modified to favor the water solubility of these compounds.

S. aureus 29213 = experiment: Broth microdilution MIC, S. aureus 29213; details: Staphylococcus aureus
MSSA (ATCC 25923) = experiment: Broth microdilution MIC, MSSA ATCC 25923; details: Staphylococcus aureus; Tables 2-4; standardized conditions; read-out: MIC (S. aureus 25923)
[2] = Tables 3-4, standardized conditions, read-out: MIC (S. aureus 29213)
[3] = Tables 2-4, standardized conditions
[4] = Table 2, standardized conditions, read-out: MIC (S. aureus 25913)

| SMILES | MIC (MRSA (ATCC 33591); Table 1, Compounds 1-15, preliminary data, modified non-standard conditions (pH 9), solubility-limited) [µg/mL] | MIC (S. aureus 29213; [2]) [µg/mL] | MIC (MSSA (ATCC 25923)) [µg/mL] | MIC (MRSA (ATCC 33591); [3]) [µg/mL] | MIC (S. aureus 29213; [4]) [µg/mL] | inhibition at 5 µM ([1]; 5 μM) [%] | inhibition at 40 µM ([1]; 40 μM) [%] |
| --- | --- | --- | --- | --- | --- | --- | --- |
| O=C1C(O)=C(c2ccc(C(F)(F)F)cc2)CN1c1ccccc1 [Compound 9, 3-Hydroxy-1-phenyl-4-(4-(trifluoromethyl)phenyl)-1,5-dihydro-2H-pyrrol-2-one] | > 128 | – | – | – | – | 26 | 8 |
| CCC1C(c2ccc(C(F)(F)F)cc2)=C(O)C(=O)N1CCCCCCN (stereo not drawn) [Compound 18, 1-(6-Aminohexyl)-5-ethyl-3-hydroxy-4-(4-(trifluoromethyl)phenyl)-1,5-dihydro-2H-pyrrol-2-one] | – | – | > 128 | > 128 | > 128 | – | – |
| CCC1C(c2ccc(C(F)(F)F)cc2)=C(O)C(=O)N1C1CCC(N)CC1 (stereo not drawn) [Compound 19, 1-((1r,4r)-4-Aminocyclohexyl)-5-ethyl-3-hydroxy-4-(4-(trifluoromethyl)phenyl)-1,5-dihydro-2H-pyrrol-2-one] | – | – | 64 (≈ 174 µM) | 128 (≈ 347 µM) | 128 (≈ 347 µM) | – | – |
| CCC1C(c2ccc(C(F)(F)F)cc2)=C(O)C(=O)N1CCOCCOCCOCCN1C(=O)C(O)=C(c2ccc(C(F)(F)F)cc2)C1CC (stereo not drawn) [Compound 31, 1,1′-(((Oxybis(ethane-2,1-diyl))bis(oxy))bis(ethane-2,1-diyl))bis(5-ethyl-3-hydroxy-4-(4-(trifluoromethyl)phenyl)-1,5-dihydro-2H-pyrrol-2-one)] | – | – | > 128 | > 128 | > 128 | – | – |
| CCC1C(c2ccc(C(F)(F)F)cc2)=C(O)C(=O)N1CCNCCNCCNCCN (stereo not drawn) [Compound 34] | – | > 128 | > 128 | > 128 | – | – | – |
| CCC1C(c2ccc(C(F)(F)F)cc2)=C(O)C(=O)N1CCCCN (stereo not drawn) [Compound 17, 1-(4-Aminobutyl)-5-ethyl-3-hydroxy-4-(4-(trifluoromethyl)phenyl)-1,5-dihydro-2H-pyrrol-2-one] | – | – | > 128 | > 128 | > 128 | – | – |
| CCC1C(c2ccc(C(F)(F)F)cc2)=C(O)C(=O)N1CCN (stereo not drawn) [Compound 16, 1-(2-Aminoethyl)-5-ethyl-3-hydroxy-4-(4-(trifluoromethyl)phenyl)-1,5-dihydro-2H-pyrrol-2-one] | – | – | 128 (≈ 407 µM) | > 128 | 128 (≈ 407 µM) | – | – |
| CCC1C(c2ccc(C(F)(F)F)cc2)=C(O)C(=O)N1CCCCCCN1C(=O)C(O)=C(c2ccc(C(F)(F)F)cc2)C1CC (stereo not drawn) [Compound 27, 1,1′-(Hexane-1,6-diyl)bis(5-ethyl-3-hydroxy-4-(4-(trifluoromethyl)phenyl)-1,5-dihydro-2H-pyrrol-2-one)] | – | – | > 128 | > 128 | > 128 | – | – |
| CCC1C(c2ccc(C(F)(F)F)cc2)=C(O)C(=O)N1CCN1C(=O)C(O)=C(c2ccc(C(F)(F)F)cc2)C1CC (stereo not drawn) [Compound 25, 1,1′-(Ethane-1,2-diyl)bis(5-ethyl-3-hydroxy-4-(4-(trifluoromethyl)phenyl)-1,5-dihydro-2H-pyrrol-2-one)] | – | – | > 128 | > 128 | > 128 | – | – |
| CCC1C(c2ccc(C(F)(F)F)cc2)=C(O)C(=O)N1CCCNCCCCN (stereo not drawn) [Compound 23, 1-(3-((4-Aminobutyl)amino)propyl)-5-ethyl-3-hydroxy-4-(4-(trifluoromethyl)phenyl)-1,5-dihydro-2H-pyrrol-2-one] | – | – | 16 (≈ 40.1 µM) | 32 to 64 (≈ 80.1 to 160 µM) | 64 (≈ 160 µM) | – | – |

More lines, main results first:

| MIC (MRSA (ATCC 33591); Table 1, Compounds 1-15, preliminary data, modified non-standard conditions (pH 9), solubility-limited) [µg/mL] | MIC (S. aureus 29213; [2]) [µg/mL] | MIC (MSSA (ATCC 25923)) [µg/mL] | MIC (MRSA (ATCC 33591); [3]) [µg/mL] | MIC (S. aureus 29213; [4]) [µg/mL] | SMILES | inhibition at 5 µM ([1]; 5 μM) [%] | inhibition at 40 µM ([1]; 40 μM) [%] |
| --- | --- | --- | --- | --- | --- | --- | --- |
| – | > 128 | > 128 | > 128 | – | O=C1C(O)=C(c2ccc(C(F)(F)F)cc2)C(C(O)CO)N1c1ccc(Br)cc1 (stereo not drawn) [Compound 49, 1-(4-Bromophenyl)-5-(1,2-dihydroxyethyl)-3-hydroxy-4-(4-(trifluoromethyl)phenyl)-1,5-dihydro-2H-pyrrol-2-one] | – | – |
| – | > 128 | > 128 | > 128 | – | CCCCCCN1C(=O)C(O)=C(c2ccc(C(F)(F)F)cc2)C1[C@H](O)c1ccccc1 (stereo partly drawn) [Compound 50, 1-Hexyl-3-hydroxy-5-((R)-hydroxy(phenyl)methyl)-4-(4-(trifluoromethyl)phenyl)-1,5-dihydro-2H-pyrrol-2-one] | – | – |
| – | 4 (≈ 8.7 µM) | 4 (≈ 8.7 µM) | 4 to 8 (≈ 8.7 to 17.4 µM) | – | O=C1C(O)=C(c2ccc(C(F)(F)F)cc2)C([C@H](O)c2ccccc2)N1c1ccc(Cl)cc1 (stereo partly drawn) [Compound 54, 1-(4-Chlorophenyl)-3-hydroxy-5-((R)-hydroxy(phenyl)methyl)-4-(4-(trifluoromethyl)phenyl)-1,5-dihydro-2H-pyrrol-2-one] | – | – |
| – | > 128 | > 128 | 64 (≈ 146 µM) | – | O=C1C(O)=C(c2ccc(C(F)(F)F)cc2)C(C2CC2)N1c1ccc(Br)cc1 (stereo not drawn) [Compound 43, 1-(4-Bromophenyl)-5-cyclopropyl-3-hydroxy-4-(4-(trifluoromethyl)phenyl)-1,5-dihydro-2H-pyrrol-2-one] | – | – |
| – | > 128 | > 128 | > 128 | – | COc1ccc(N2C(=O)C(O)=C(c3ccc(C(F)(F)F)cc3)C2[C@H](O)c2ccccc2)cc1 (stereo partly drawn) [Compound 52, 3-Hydroxy-5-((R)-hydroxy(phenyl)methyl)-1-(4-methoxyphenyl)-4-(4-(trifluoromethyl)phenyl)-1,5-dihydro-2H-pyrrol-2-one] | – | – |
| – | 2 (≈ 4.05 µM) | 2 (≈ 4.05 µM) | 2 (≈ 4.05 µM) | – | O=C1C(O)=C(c2ccc(C(F)(F)F)cc2)C([C@H](O)c2ccccc2)N1c1ccc(C(F)(F)F)cc1 (stereo partly drawn) [Compound 56, 3-Hydroxy-5-((R)-hydroxy(phenyl)methyl)-1,4-bis(4-(trifluoromethyl)phenyl)-1,5-dihydro-2H-pyrrol-2-one] | – | – |
| – | 128 (≈ 289 µM) | 16 (≈ 36.1 µM) | 128 (≈ 289 µM) | – | O=C1C(O)=C(c2ccc(C(F)(F)F)cc2)C([C@H](O)c2ccccc2)N1c1ccc(F)cc1 (stereo partly drawn) [Compound 53, 1-(4-Fluorophenyl)-3-hydroxy-5-((R)-hydroxy(phenyl)methyl)-4-(4-(trifluoromethyl)phenyl)-1,5-dihydro-2H-pyrrol-2-one] | – | – |
| – | > 128 | > 128 | 32 (≈ 77.6 µM) | – | CC1C(c2ccc(C(F)(F)F)cc2)=C(O)C(=O)N1c1ccc(Br)cc1 (stereo not drawn) [Compound 41, 1-(4-Bromophenyl)-3-hydroxy-5-methyl-4-(4-(trifluoromethyl)phenyl)-1,5-dihydro-2H-pyrrol-2-one] | – | – |
| – | > 128 | > 128 | > 128 | – | O=C1C(O)=C(c2ccc(C(F)(F)F)cc2)C(Cc2ccccc2)N1c1ccc(Br)cc1 (stereo not drawn) [Compound 46, 5-Benzyl-1-(4-bromophenyl)-3-hydroxy-4-(4-(trifluoromethyl)phenyl)-1,5-dihydro-2H-pyrrol-2-one] | – | – |
| – | > 128 | > 128 | > 128 | – | CCC1C(c2ccc(C(F)(F)F)cc2)=C(O)C(=O)N1CCSCCN (stereo not drawn) [Compound 36] | – | – |
| – | 16 (≈ 31.7 µM) | 32 to 64 (≈ 63.5 to 127 µM) | 32 (≈ 63.5 µM) | – | O=C1C(O)=C(c2ccc(C(F)(F)F)cc2)C([C@@H](O)c2ccccc2)N1c1ccc(Br)cc1 (stereo partly drawn) [Compound 48, 1-(4-Bromophenyl)-3-hydroxy-5-((S)-hydroxy(phenyl)methyl)-4-(4-(trifluoromethyl)phenyl)-1,5-dihydro-2H-pyrrol-2-one] | – | – |
